Experimental findings from patent US12606541B2, “PPARg modulators and methods of use” (Eisai R&D Management Co., Ltd., priority 2020, dated 2026) are described below.

For assay [1], the target named is T1, His6-TEV-PPARγ-(234-505) (Homo sapiens, UniProt P37231).
T1 construct: The His6-TEV-PPARγ-(234-505) protein for assay was expressed and purified; TEV cleavage site (N); made in house
T1 sequence (P37231 234-505): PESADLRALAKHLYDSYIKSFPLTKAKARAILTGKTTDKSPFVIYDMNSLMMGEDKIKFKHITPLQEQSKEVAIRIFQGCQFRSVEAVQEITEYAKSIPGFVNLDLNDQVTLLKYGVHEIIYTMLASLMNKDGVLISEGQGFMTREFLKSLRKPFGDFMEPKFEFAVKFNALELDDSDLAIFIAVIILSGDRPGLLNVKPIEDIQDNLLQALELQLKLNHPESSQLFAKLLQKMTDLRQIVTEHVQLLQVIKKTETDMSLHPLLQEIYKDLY
Kind of assay: TR-FRET Assay to Measure Co-R Peptide Recruitment to PPARγ. In kind it is biochemical. Conditions: Co-R peptide (SMRT-ID2) recruitment, top final concentration 20 μM, read-out: TR-FRET i-Ag, AC50. The method in brief: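 Corepressor recruitment is measured by adding terbium-labeled anti-His antibody and FITC SMRT-ID2 peptide, at 5 and 200 nM final, after a 20-minute room-temperature protein–compound incubation. After one further hour, signal is converted to percent response between DMSO and 500 nM T0070907 wells.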
In general terms: Time-resolved FRET reads energy transfer from a long-lived donor to a nearby acceptor.

For assay [2], the system named is UM-UC-9 engineered cells. The assay is described as follows: Cell proliferation / short-term viability assay, CellTiter-Glo 144 h. It counts as cell-based, human. Conditions: read-out: CTGlo 144 h UMUC9.5, G150. The method in brief:
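Viability read by CellTiter-Glo 2.0 luminescence at day 7 versus DMSO-vehicle wells and a T0 plate measured on day 0. Cells: UM-UC-9 engineered assay-ready stocks, 500 cells/well in high-glucose DMEM with 10% FBS, 37° C, 5% CO2.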
On the technique in general: In ATP-based viability assays light output follows the ATP content of the culture.

Where two headings read alike, the source gives them in different places.

Take `COc1cc(-c2cc(C(=O)N3CCC(C(=O)NCc4cc(Cl)ccc4F)CC3)n[nH]2)c(Cl)cn1` [Example 154, N-(5-chloro-2-fluorobenzyl)-1-(5-(5-chloro-2-methoxypyridin-4-yl)-1H-pyrazole-3-carbonyl)piperidine-4-carboxamide]: in assay [1], the AC50 amounted to 77.4 nM. Also, the IC50 in assay [2] (Homo sapiens, UM-UC-9, 144 h) is 166 nM.
The corresponding values for `COc1cc(-c2cc(C(=O)N3CC[C@H](C(=O)NCc4nccnc4C(F)(F)F)CC34CC4)n[nH]2)c(F)cn1` [Example 432, (S)-4-(5-(5-fluoro-2-methoxypyridin-4-yl)-1H-pyrazole-3-carbonyl)-N-((3-(trifluoromethyl)pyrazin-2-yl)methyl)-4-azaspiro[2.5]octane-7-carboxamide] are 4.1 nM and 9.1 nM.
For `COc1cc(-c2cc(C(=O)N3CC[C@H](C(=O)NC4CCN(CCF)C(C)(C)C4)CC34CC4)n[nH]2)c(F)cn1` (single isomer, unassigned) [Example 425-B], the AC50 in assay [1] came out at 917 nM. Moreover, the IC50 in assay [2] is greater than 10000 nM.
In the same order, the values of `COc1cc(-c2cc(C(=O)N3CC[C@H](C(=O)NCc4ncc(N5CC6CC5CN6)cc4Cl)CC34CC4)n[nH]2)c(F)cn1` (single isomer, unassigned) [Example 462-A] are 22.5 nM and 551 nM.
With `COc1cc(-c2cc(C(=O)N3CC[C@H](C(=O)NC4CCCn5cc(C(F)(F)F)nc54)CC34CC4)n[nH]2)c(F)cn1` (single isomer, unassigned) [Example 502-B], the AC50 in assay [1] was found to be 5.3 nM. The IC50 in assay [2] is 66.1 nM.
With `COc1cc(-c2cc(C(=O)N3CCC(C(=O)Nc4cnn(C(C)C)c4)CC3)n[nH]2)c(Cl)cn1` [Example 205, 1-(5-(5-chloro-2-methoxypyridin-4-yl)-1H-pyrazole-3-carbonyl)-N-(1-isopropyl-1H-pyrazol-4-yl)piperidine-4-carboxamide], the AC50 in assay [1] is 912 nM. Besides, the IC50 in assay [2] (Homo sapiens, UM-UC-9, 144 h) was 3110 nM.
With `COc1cc(-c2cc(C(=O)N3CCC(C(=O)Nc4c(F)ccc5ccnn45)CC34CC4)n[nH]2)c(F)cn1` (racemic) [Example 468, (R)-4-(5-(5-fluoro-2-methoxypyridin-4-yl)-1H-pyrazole-3-carbonyl)-N-(6-fluoropyrazolo[1,5-a]pyridin-7-yl)-4-azaspiro[2.5]octane-7-carboxamide and (S)-4-(5-(5-fluoro-2-methoxypyridin-4-yl)-1H-pyrazole-3-carbonyl)-N-(6-fluoropyrazolo[1,5-a]pyridin-7-yl)-4-azaspiro[2.5]octane-7-carboxamide], the AC50 in assay [1] came out at 8.3 nM. Also, the IC50 in assay [2] is 80 nM.
For the compound `COc1cc(-c2cc(C(=O)N3CC[C@@H](C(=O)N[C@H]4CCN(CC(C)(C)O)C4)CC34CC4)[nH]n2)c(F)cn1` [Example 345-B, (R)-4-(3-(5-Fluoro-2-methoxypyridin-4-yl)-1H-pyrazole-5-carbonyl)-N—((S)-1-(2-hydroxy-2-methylpropyl)pyrrolidin-3-yl)-4-azaspiro[2.5]octane-7-carboxamide], the AC50 in assay [1] worked out at 7250 nM. The IC50 in assay [2] (Homo sapiens, UM-UC-9, 144 h) was greater than 10000 nM.
Regarding `COc1cc(-c2cc(C(=O)N3CCC(C(=O)NC4CCC(C(F)(F)F)CC4)CC3)n[nH]2)c(Cl)cn1` (single isomer, unassigned) [Example 118-B], the AC50 in assay [1] (listed as 118b) was 964 nM. For the same compound, the IC50 in assay [2] (listed as 118b) came out at 2960 nM.
`COc1cc(-c2cc(C(=O)N3CC[C@H](C(=O)NC4CCC(C(F)(F)F)C(O)C4)CC34CC4)n[nH]2)c(F)cn1` (single isomer, unassigned) [Example 501-B]: the AC50 in assay [1] was determined as 51.1 nM. Besides, the IC50 in assay [2] came out at 258 nM.
